Source: patent US20090215893A1, “Parakeratosis inhibitor, pore-shrinking agent,or rough skin preventing/ameliorating agent, and external composition for skin” (Shiseido Company Ltd, priority 2005, published 2009)

Legend:
[1] = tested on: back of a hairless mouse (HR-1), 10 mass % oleic acid applied; test: Parakeratosis-inhibiting effect tests: oleic acid applied to hairless mouse back, macroscopic rough skin evaluation and parakeratosis value; type: in vivo; settings: for Macroscopic evaluation (average of four animals): 100 μL after oleic acid, three days, rough skin score 0.0 (no redness) to 2.0 (control); for Parakeratosis value (average of four animals): tape-stripped stratum corneum, hematoxylin, range 1.0 to 3.0, higher = parakeratosis advanced, control 2.0; for parakeratosis value / parakeratosis-inhibiting effect / rough skin preventing effect, based on stratum corneum peeling and redness: summary of Table 1, concentrations as in Table 1
Protocol: Aqueous solutions (containing 30 mass % of ethanol) of primarily 3 mass % of an α-amino acid derivative or salt thereof were prepared as the evaluation sample. The pH was regulated by hydrochloric acid or sodium hydroxide so as to be 7.0 to 7.5. When sample solubility was low, the solution was prepared accordingly.
100 μL of 10 mass % oleic acid solution (solvent: ethanol) were applied to the back of a hairless mouse (HR-1; Hoshino Laboratory Animals). Then the sample solution (α-amino acid derivative, and the like) was applied 100 μL at a time. This procedure was continued for three days. […] The status of the skin was evaluated in 0.25-point intervals, with skin where the control (control aqueous solution) had been applied being 2.0 and skin where there was no redness being 0.0. At the same time, the stratum corneum at the back of the hairless mouse was peeled off with tape, the nuclei were stained by hematoxylin, and the degree of parakeratosis was observed and evaluated by a parakeratosis value within a range of 1.0 to 3.0 (in 0.25 increments).

[2] = tested on: pores of the cheeks of healthy human males; test: Human pore-shrinking effect (replica assessment of cheek pores); type: in vivo; settings: for Replica assessment (average of n = 5): twice a day for one month, pore size rating 1-13, after application minus before application, control 0.3; for pore-shrinking effect: summary of Table 2, concentrations as in Table 2
Protocol: An experiment was conducted whereby a sample was applied twice a day for one month to the cheeks of healthy human males in groups of 5 men each. Aqueous solutions (containing 15 mass % of ethanol) of 3 mass % of the α-amino acid derivative or a salt thereof were prepared as the evaluation sample. The pH was regulated by hydrochloric acid or sodium hydroxide so as to be 7.0 to 7.5. When sample solubility was low, the solution was prepared accordingly. The control was an aqueous 15% ethanol solution. The sample aqueous solution and control aqueous solution were applied to one half of the face at a time.
A replica was collected before and after continuous application, and changes in the shape of the pores at the same site were observed using a three-dimensional laser scanning microscope. The size of the pores was macroscopically evaluated in 13 steps of 1 through 13 (with the pores becoming larger as the numbers became larger), the difference in the ratings before and after application (after application-before application) was calculated, and the efficacy of each sample was studied using this difference as the replica assessment.

[3] = tested on: back of hairless mice (HR-1), 10 mass % oleic acid applied; test: Inhibiting effect against rough skin induced by oleic acid application (transepidermal water loss); type: in vivo; design: ΔTEWL value: unit not given here; settings: for ΔTEWL value: three days, average of four animals, rough skin worse as value increases, control 12.0; for ΔTEWL value compared with the control aqueous solution / rough skin preventing/ameliorating effect: summary of Table 3, concentrations as in Table 3
Protocol: In order to investigate the inhibiting effect of α-amino acid derivatives and salts thereof against rough skin induced by oleic acid application, the transepidermal water loss (TEWL value) before and after application was measured, the difference was compared with the control (control aqueous solution), and the effect was determined. Sample preparation and the application method were in accordance with Example 1. The TEWL was determined using the TM210 TEWA Meter (Courage+Khazaka Electronic GmBH).
100 μL of 10 mass % oleic acid (solvent: ethanol) was applied to the back of hairless mice (HR-1, four mice per group). Then a sample solution (α-amino acid derivatives, and the like) was applied 100 μL at a time. This procedure was continued for three days. The following day, the TEWL value of the back was determined and the values of the four animals were averaged. Rough skin became worse as the ΔTEWL value increased.

[4] = tested on: cheek of a panel of 20 women; test: Sensory irritation tests; type: in vivo, human; settings: for Evaluation (sensory irritation, class of average rating): 1 mL on cheek, evaluated for ten minutes, 20 women; for sensory irritation: summary of Table 4, β-alanine at 3%
Protocol: 1 mL of a control aqueous solution and the sample aqueous solution prepared in Example 1 were applied using a cotton swab to the left or right cheek, respectively, of a panel of 20 women, the irritating sensation was evaluated every 30 seconds for ten minutes beginning immediately after application, and a final evaluation was reported. The evaluation of the irritating sensation was based on the following four steps of rating criteria, the average rating was calculated, and the average was classified by the following criteria.
3: Discontinued because of extremely strong irritation, such as stinging sensation, burning sensation, tickling sensation, itching, and the like.
2: Intolerable strong irritation, such as stinging sensation, burning sensation, tickling sensation, itching, and the like.
1: Tolerable with only slight stinging sensation, burning sensation, tickling sensation, itching, and the like.
0: Not particularly irritating.
A: average rating of less than 0.2
B: average rating of 0.2 to less than 1.0
C: average rating of 1.0 to less than 2.0
D: average rating of 2.0 or greater

Structure (SMILES) | Macroscopic evaluation (average of four animals) ([1]; sample 1.5 mass %) | Parakeratosis value (average of four animals) ([1]; sample 1.5 mass %) | parakeratosis value / parakeratosis-inhibiting effect [1] | rough skin preventing effect, based on stratum corneum peeling and redness [1] | Replica assessment (average of n = 5) ([2]; sample 1.5 mass %) | pore-shrinking effect [2] | ΔTEWL value ([3]; sample 1.5 mass %) | ΔTEWL value compared with the control aqueous solution / rough skin preventing/ameliorating effect [3] | Evaluation (sensory irritation, class of average rating) ([4]; sample 1.5 mass %) | sensory irritation [4] | Macroscopic evaluation (average of four animals) ([1]; sample 3 mass %) | Parakeratosis value (average of four animals) ([1]; sample 3 mass %) | Replica assessment (average of n = 5) ([2]; sample 3 mass %) | ΔTEWL value ([3]; sample 3 mass %) | Evaluation (sensory irritation, class of average rating) ([4]; sample 3 mass %) | Macroscopic evaluation (average of four animals) ([1]; sample 1 mass %) | Parakeratosis value (average of four animals) ([1]; sample 1 mass %) | ΔTEWL value ([3]; sample 1 mass %)
CC(NS(=O)(=O)c1ccccc1)C(=O)O (racemic) [N-benzenesulfonyl-DL-alanine] | 1.4 | 1.5 | reduced | seen | −0.8 | seen | 7.0 | significantly lower | A (average rating of less than 0.2) | no problems |  |  |  |  |  |  |  | 
O=C(O)C(CO)NS(=O)(=O)c1ccccc1 (racemic) [N-benzenesulfonyl-DL-serine] |  |  | reduced | seen |  | seen |  | significantly lower |  | no problems | 1.2 | 1.2 | −1.3 | 6.9 | A (average rating of less than 0.2) |  |  | 
CC(NC(=O)OCc1ccccc1)C(=O)O (racemic) [N-carbobenzoyloxy-DL-alanine] |  |  | reduced | seen |  | seen |  | significantly lower |  | no problems | 1.3 | 1.2 | −1.0 | 6.6 | A (average rating of less than 0.2) |  |  | 
O=C(NC(CO)C(=O)O)OCc1ccccc1 (racemic) [N-carbobenzoyloxy-DL-serine] |  |  | reduced | seen |  | seen |  | significantly lower |  | no problems | 1.2 | 1.2 | −1.3 | 6.7 | A (average rating of less than 0.2) |  |  | 
CC(NC1CCCCC1)C(=O)O (racemic) [N-cyclohexyl-DL-alanine] |  |  | reduced | seen |  | seen |  | significantly lower |  | no problems | 1.3 | 1.4 | −1.4 | 6.5 | A (average rating of less than 0.2) |  |  | 
O=C(O)C(CO)NC1CCCCC1 (racemic) [N-cyclohexyl-DL-serine] |  |  | reduced | seen |  | seen |  | significantly lower |  | no problems | 1.2 | 1.2 | −1.4 | 6.7 | A (average rating of less than 0.2) |  |  | 
CCNC(C)C(=O)O (racemic) [N-ethyl-DL-alanine] |  |  | reduced | seen |  | seen |  | significantly lower |  | no problems | 1.6 | 1.5 | −0.5 | 8.2 | A (average rating of less than 0.2) |  |  | 
CCNC(CO)C(=O)O (racemic) [N-ethyl-DL-serine] |  |  | reduced | seen |  | seen |  | significantly lower |  | no problems | 1.5 | 1.5 | −1.3 | 7.8 | A (average rating of less than 0.2) |  |  | 
CNC(C)C(=O)O (racemic) [N-methyl-DL-alanine] |  |  | reduced | seen |  | seen |  | significantly lower |  | no problems | 1.4 | 1.4 | −0.9 | 8.1 | A (average rating of less than 0.2) |  |  | 
O=C(O)CNC(=O)c1ccccc1 [Hippuric acid, reference compound] |  |  | not seen |  |  |  |  | not obtained |  |  |  |  |  |  |  | 1.9 | 2.0 | 10.5
CC(=O)NCC(=O)O [N-acetyl-glycine, reference compound] |  |  | not seen |  |  |  |  | not obtained |  |  | 1.9 | 2.0 |  | 14.7 |  |  |  | 
O=C(O)CNCP(=O)(O)O [Phosphonomethyl-glycine, reference compound] |  |  | not seen |  |  |  |  | not obtained |  |  |  |  |  |  |  | 1.9 | 2.1 | 11.4
NCCC(=O)O [β-alanine, reference compound] |  |  |  |  |  |  |  |  |  | strong sensory irritation |  |  |  |  | D (average rating of 2.0 or greater) |  |  | 
